Reference: publication PMC11163988, “Cloning, expression, and purification of an α-carbonic anhydrase from Toxoplasma gondii to unveil its kinetic parameters and anion inhibition profile” (Journal of Enzyme Inhibition and Medicinal Chemistry, 2024)
Where two headings read alike, the source gives them in different places.

Tests used:
[1] = molecular target: Tg_CA (Toxoplasma gondii α-CA) (Toxoplasma gondii, UniProt S8F479); assay: biochemical; type: biochemical
hCA II = hCA II (Homo sapiens, UniProt P00918); assay: stopped-flow CO2 hydrase assay, hCA II; type: biochemical; conditions: 20 mM Hepes pH 7.5, 20 mM NaClO4, mean from 3 assays
[2] = pH 7.5, read-out: KI (mM) Tg_CAα

Tg_CA (Toxoplasma gondii α-CA), sequence (S8F479 486-829 limits assumed): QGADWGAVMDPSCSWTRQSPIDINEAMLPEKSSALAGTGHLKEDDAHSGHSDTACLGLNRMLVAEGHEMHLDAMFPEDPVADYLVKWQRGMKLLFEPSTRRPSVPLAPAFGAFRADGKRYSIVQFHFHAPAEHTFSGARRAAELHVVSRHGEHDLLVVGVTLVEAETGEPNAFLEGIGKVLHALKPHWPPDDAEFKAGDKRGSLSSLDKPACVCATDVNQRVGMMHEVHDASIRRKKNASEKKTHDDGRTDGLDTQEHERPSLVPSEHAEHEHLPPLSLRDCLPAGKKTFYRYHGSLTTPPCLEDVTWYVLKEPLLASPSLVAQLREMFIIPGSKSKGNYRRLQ

| SMILES | Ki [1, 2] [mM] | also measured |
| --- | --- | --- |
| OB1OB2OB(O)OB(O1)O2 [B4O7^2–, tetraborate] | 63.9 |  |
| F[B-](F)(F)F [BF4^–, tetrafluoroborate] | 25 |  |
| Br [Br^–] | > 100 |  |
| O=S(=O)(O)C(F)(F)F [CF3SO3^–, triflate] | 7.1 |  |
| N#CO [CNO^–, cyanate] | 49.6 |  |
| O=C(O)O [CO3^2–, carbonate] | 98.2 |  |
| S=C(S)S [CS3^2–, trithiocarbonate] | 4.8 |  |
| [O-][Cl+3]([O-])([O-])O [ClO4^–, perchlorate] | 77.8 |  |
| Cl [Cl^–, chloride] | > 100 |  |
| CCN(CC)C(=S)S [Et2NCS2^–, N,N-diethyldithiocarbamate] | 3.1 |  |
| F [F^–] | > 100 |  |
| NS(N)(=O)=O [H2NSO2NH2, sulfamide] | 0.92 |  |
| NS(=O)(=O)O [H2NSO3H, sulphamic acid] | 0.68 |  |
| O=C(O)O [HCO3^–, bicarbonate] | > 100 |  |
| O=S(O)O [HSO3^–, bisulphite] | 9.1 |  |
| S [HS^–, hydrogensulfide] | 45.7 |  |

| SMILES | Ki [1, 2] [mM] | also measured |
| --- | --- | --- |
| I [I^–] | > 100 |  |
| [N-]=[N+]=[N-] [N3^–, azide] | > 100 |  |
| O=S(=O)(O)NS(=O)(=O)O [NH(SO3)2^2–, iminodisulfonate] | 8.5 |  |
| O=NO [NO2^–, nitrite] | 6.4 |  |
| O=[N+]([O-])O [NO3^–, nitrate] | 8.5 |  |
| O=P(O)(O)OP(=O)(O)O [P2O7^4–, diphosphate] | 35.7 |  |
| F[P-](F)(F)(F)(F)F [PF6^–, haxafluorophosphate] | 1.9 | Ki (hCA II): > 100 mM |
| OB(O)c1ccccc1 [Ph-B(OH)2, phenylboronic acid] |  | Ki [1]: 5.1 mM |
| [O]=[Re](=[O])(=[O])[OH] [ReO4^–, perrhenate] | 3.4 |  |
| [O]=[Ru](=[O])(=[O])=[O] [RuO4^–, perruthenate] | 2.3 |  |
| O=S(=O)(O)OOS(=O)(=O)O [S2O8^2–, peroxydisulfate] | 26.6 |  |
| N#CS [SCN^–, thiocyanate] | 31.9 |  |
| O=S(=O)(O)O [SO4^2–, sulphate] | 6 |  |
| N#C[SeH] [SeCN^–, selenocyanate] | > 100 |  |
| O=[Te](=O)(O)O [TeO4^2–, tellurate] | 2.5 |  |
| [O]=[V]([OH])([OH])[O][V](=[O])([OH])[OH] [V2O7^4–, divanadate] | 39.8 |  |
